system: Aspergillus niger ATCC 16404; assay: Test for adequate preservation (European Pharmacopoeia) in O/W emulsion, CFU reduction; assay type: cell-based; conditions: total concentration used 1 wt % in O/W emulsion, pH 5.5, initial CFU 1200000
Text: In case of doubt, antimicrobial efficacy in the sense of this text is present when adequate preservation is established according to the European Pharmacopoeia (ISBN 3-7692-2768-9; Supplement 2001 to the 3rd Edition, page 421-422, chapter 5.1.3). The microbe preferably to be used is preferably Aspergillus niger ATCC16404. For further information on the procedure for testing for antimicrobial efficacy, reference is made in particular to example 1 given below.
Synergistic intensification (of antimicrobial action) is present when the synergy index (SI value) of the test mixture according to Kull (literature: F. C. Kull et al., Applied Microbiology Vol. 9, p. 538-541 (1961); D. C. Steinberg, Cosmetics & Toiletries Vol. 115(11), 59-62 (2000)) gives a value <1. For further information on calculation of the synergy index, reference is again made to example 1 given below. Once again, the microbe preferably to be used for determining the synergy index is the strain of Aspergillus niger stated above.
The test for adequate preservation was carried out according to the European Pharmacopoeia. […]
To determine the potentially synergistically intensified efficacy of ternary mixtures containing 2-phenoxyethanol, 1,2-decanediol and 1,2-hexanediol, the CFU-reducing properties were determined according to the test procedure described in example 1 for the individual substances, for various binary mixtures and for ternary mixtures according to the invention.
The synergy index (SI values) of the ternary mixtures according to the invention and binary mixtures not according to the invention according to Kull (literature: F. C. Kull et al., Applied Microbiology Vol. 9, p. 538-541 (1961); D. C. Steinberg, Cosmetics & Toiletries Vol. 115(11), 59-62 (2000) was calculated using the following equations. SI=Z*D/A+Z*E/B Binary mixtures: SI=Z*D/A+Z*E/B+Z*F/C Ternary mixture: wherein: D, E, F: factor of proportion of the individual constituents (e.g. 70 wt %=factor 0.70) A, B, C: CFU of the individual substances at time point 48 h Z: CFU of the binary/ternary mixture at time point 48 h […]

Row | SMILES | Aspergillus niger CFU after 48 h [CFU]
1 | OCCOc1ccccc1 [product A, 2-phenoxyethanol] | 1100000
2 | CCCCCCCCC(O)CO (stereo not drawn) [product B, 1,2-decanediol] | 1200000
3 | CCCCC(O)CO (stereo not drawn) [product C, 1,2-hexanediol] | 1000000
